Laboratory results reported in patent publication US20030003396A1, “Optical data carrier comprising a merocyanine dye as light-absorbent compound in the information layer” (priority 2001, published 2003).
Marks after values point to notes of the source that are not given here.

Experiment: UV absorption spectra measured in solution
Format: physicochemical
Text: In the case of a write-once optical data carrier according to the invention which is written on and read by means of the light of a blue laser, preference is given to merocyanine dyes whose absorption maximum λmax1 is in the range from 340 to 410 nm, […] half of the […] one tenth of the absorbance value at λmax1 are preferably not more than 50 nm apart. Such a merocyanine dye preferably has no longer-wavelength maximum λmax2 up to a wavelength of 500 nm, particularly preferably up to 550 nm, very particularly preferably up to 600 nm.
The absorption spectra are measured, for example, in solution.
Suitable merocyanines having the required spectral properties are, in particular, those in which the dipole moment change Δμ=|μg−μag|, i.e. the positive difference between the dipole moments in the ground state and in the first excited state, is very small, preferably <5 D, particularly preferably <2 D. A method of determining such a dipole moment change Δμ is described, for example, in F. Würthner et al., Angew. Chem. 1997, 109, 2933, and in the literature cited therein. A low solvent-induced wavelength shift (dioxane/DMF) is likewise a suitable selection criterion. Preference is given to merocyanines whose solvent-induced wavelength shift Δλ=|λDMF−λdioxane|, i.e. the positive difference between the absorption wavelengths in the solvents dimethylformamide and dioxane, is <20 nm, particularly preferably <10 nm, very particularly preferably <5 nm

[1] = Table 2, on the long wavelength flank
[2] = Table 3, on the short wavelength flank

ε (Table 2)	ε (Table 3)	λmax (Table 3, in dioxane)	Compound	also measured
110332 L/mol/cm			CCCCN1C(=O)C(=CC=C2N(C)c3ccc(C(=O)OC)cc3C2(C)C)C(=O)c2ccccc21 [Example 53]	λmax (Table 2, in dioxane): 500 nm
109380 L/mol/cm			CCCCN1C(=O)C(=CC=C2Oc3ccccc3N2CC)C(C)=C(C#N)C1=O [Example 55]	λmax (Table 2, in methylene chloride): 490^6) nm; Δλ (Table 2, |λDMF - λdioxane|): 5 nm
57230 L/mol/cm			CN1C(=CC=C(C#N)c2nc3ccccc3s2)C(C)(C)c2ccccc21 [Example 57]	λmax (Table 2, in dioxane): 462 nm; λ1/2-λ1/10 (Table 2, on the short wavelength flank): 34^3) nm
36010 L/mol/cm			COC(=O)c1ccc2c(c1)C(C)(C)C(=CC=C(C#N)[n+]1ccccc1)N2C.[O-][Cl+3]([O-])([O-])[O-] [Example 58]	λmax (Table 2, in methanol): 459^5) nm
24400 L/mol/cm			CCN1CCCC1=CC=C(C#N)[n+]1ccccc1.[O-][Cl+3]([O-])([O-])[O-] [Example 59]	λmax (Table 2, in methanol): 462^5) nm
75006 L/mol/cm			CCN1CCCC1=CC=C1SC(=S)N(CC)C1=O [Example 60]	λmax (Table 2, in dioxane): 466 nm; λ1/2-λ1/10 [1]: 10^4) nm
36610 L/mol/cm			CCN1C(=O)C(=CC=C2N(C)c3ccccc3C2(C)C)SC1=S [Example 61]	λmax (Table 2, in methylene chloride): 512^6) nm; λ1/2-λ1/10 [1]: 25^4) nm; Δλ (Table 2, |λmethylene chloride-λmethanol|): 36^7) nm
			CCOC(=O)C(C#N)=c1[nH]c(=O)c(=CC=C2N(C)c3ccccc3C2(C)C)c(C)c1C(=O)OCC [Example 64]	λmax (Table 2, in methanol): 577^5) nm
142900 L/mol/cm			CCOC(=O)C(C#N)=c1[nH]c(=O)c(=CC=C2N(C)c3ccc(C(=O)OC)cc3C2(C)C)c(C)c1C(=O)OCC [Example 65]	λmax (Table 2, in methanol): 587^5) nm
			Cc1c(C#N)c(=C(C#N)C#N)[nH]c(=O)c1=CC=C1N(C)c2ccccc2C1(C)C [Example 66]	λmax (Table 2, in methanol): 546^5) nm
50900 L/mol/cm			COC(=O)c1ccc2c(c1)C(C)(C)C(=CC=c1c(C)c(C#N)c(=C(C#N)C#N)[nH]c1=O)N2C [Example 67]	λmax (Table 2, in methanol): 554^5) nm
	77180 L/mol/cm	462 nm	CCCN1C(=O)C(=CC=CN(C)C)C(C)=C(C#N)C1=O [Example 68]	λ1/2-λ1/10 [2]: 28^3) nm; Δλ (Table 3, |λDMF-λdioxane|): 8 nm
	89100 L/mol/cm		CCCCN1C(=O)C(=CC=CN(C)C)C(C(F)(F)F)=C(C#N)C1=O [Example 71]	λmax (Table 3, in DMF): 564^6) nm
	79685 L/mol/cm	480 nm	CCCCN1C(=O)C(=CC=CN(C)c2ccccc2)C(C)=C(C#N)C1=O [Example 72]	Δλ (Table 3, |λDMF-λdioxane|): 1.3 nm
	84070 L/mol/cm	447 nm	CN(C=CC=C1C(=O)c2ccccc2C1=O)c1ccccc1 [Example 73]	
	73010 L/mol/cm	482 nm	CCCN1C(=O)C(=CC=CN(C)c2ccc(OC)cc2)C(C)=C(C#N)C1=O [Example 74]	Δλ (Table 3, |λDMF-λdioxane|): 4.3 nm
	62780 L/mol/cm		COc1ccc(N(C)C=CC=C2C(=O)NC(=O)C([n+]3ccccc3)=C2C)cc1.[O-][Cl+3]([O-])([O-])[O-] [Example 75]	λmax (Table 3, in methanol): 469^5) nm
	89800 L/mol/cm	458 nm	C=C(C)C(=O)OCCN1C(=O)C(=CC=CN2CCOCC2)C(C)=C(C#N)C1=O [Example 76]	λ1/2-λ1/10 [2]: 28^3) nm
		366 nm	COC(=O)C(=CC=CN1CCOCC1)C(=O)OC [Example 78]	
	62900 L/mol/cm	382 nm	COC(=O)C(C#N)=CC=CN1CCOCC1 [Example 79]	
	119800 L/mol/cm	585 nm	CCN1C(=O)C(=CC=CC=CN(C)c2ccccc2)C(C)=C(C#N)C1=O [Example 80]	λ1/2-λ1/10 (Table 3, on the long wavelength flank): 28^4) nm
		337 nm	CCCN1C(=O)C(=CC(C)=CN(C)C)C(C)=C(C#N)C1=O [Example 83]	
	149800 L/mol/cm		CCN1C(=O)C(=CC=CC=CN(C)C)C(C)=C(C#N)C1=O [Example 84]	λmax (Table 3, in DMF): 552^6) nm
			CCOC(=O)C(C#N)=c1[nH]c(=O)c(=CC=CN(C)C)c(C)c1C(=O)OCC [Example 85]	λmax (Table 3, in methanol): 509^5) nm
